Where two headings read alike, the source gives them in different places.
Assays:
Solid Tumors = experiment: Monotherapy Phase 1 study in solid tumors, daily continuously schedule; format: in vivo, human
MIA PaCa-2 xenografts = experiment: CIVO intratumoral microinjection, MIA PaCa-2 xenografts; format: in vivo; details: MIA PaCa-2 PDAC tumors
Excerpt: Replicate Tumors: n≥5. Time Point: 24 hr. Cell Line; MIA PaCa-2. Biomarker: CC3, H&E.
The original paraffin embedded fixed tumor blocks were sliced and stained for MCL-1 and total MYC using antibodies specific to each. The MYC staining is in red. The MCL-1 staining is in yellow. The nuclei are stained in blue. For MYC and MCL-1, a decrease in the signal indicates an on-target effect of VOR.

[1] = PK of voruciclib, daily dosing continuously (Table 4); format: in vivo; details: human, plasma, oral; for Vd/F: read-out: Vz/F; for half-life: read-out: t½ (converted); for Tmax: median
Excerpt: Voruciclib half life is designated as t½ in the tables (expressed in hours).
Voruciclib volume of distribution is designated as Vz/F (expressed in liters).

[2] = system: Venetoclax Sensitive and Resistant Cell Lines; experiment: Voruciclib + venetoclax synergy in venetoclax sensitive and resistant cell lines; format: cell-based
Excerpt: FIG. 4A: Ven Sensitive; FIG. 4B: Ven Resistant.

[3] = Daily continuously schedule, 75 to 500 mg, 39 pts
[4] = 75 mg, Day 1, daily dosing continuously, mean
[5] = 75 mg, Day 15, daily dosing continuously, mean
[6] = 150 mg, Day 1, daily dosing continuously, mean
[7] = 150 mg, Day 15, daily dosing continuously, n = 1
[8] = 250 mg, Day 1, daily dosing continuously, mean
[9] = 250 mg, Day 15, daily dosing continuously, mean
[10] = 350 mg, Day 1, daily dosing continuously, mean
[11] = 350 mg, Day 15, daily dosing continuously, mean
[12] = 500 mg, Day 1, daily dosing continuously, mean
[13] = 500 mg, Day 15, daily dosing continuously, mean

AUC(0-inf) [1, 4]: 3420 ng·h/mL
Cmax [1, 4]: 125 ng/mL
AUC(0-t) ([1]; 75 mg, Day 1, daily dosing continuously, mean, read-out: AUC0-24): 1730 ng·h/mL
AUC(0-t) ([1]; 75 mg, Day 1, daily dosing continuously, mean, read-out: AUC0-t): 1730 ng·h/mL
Vd/F [1, 4]: 860 L
half-life [1, 4]: 21.8 h
Tmax ([1]; 75 mg, Day 1, daily dosing continuously): 4 h
AUC(0-inf) [1, 5]: 27200 ng·h/mL
Cmax [1, 5]: 331 ng/mL
AUC(0-t) ([1]; 75 mg, Day 15, daily dosing continuously, mean, read-out: AUC0-24): 5570 ng·h/mL
AUC(0-t) ([1]; 75 mg, Day 15, daily dosing continuously, mean, read-out: AUC0-t): 5570 ng·h/mL
Vd/F [1, 5]: 982 L
half-life [1, 5]: 359 h
Tmax ([1]; 75 mg, Day 15, daily dosing continuously): 2 h
AUC(0-inf) [1, 6]: 15600 ng·h/mL
Cmax [1, 6]: 258 ng/mL
AUC(0-t) ([1]; 150 mg, Day 1, daily dosing continuously, mean, read-out: AUC0-24): 4850 ng·h/mL
AUC(0-t) ([1]; 150 mg, Day 1, daily dosing continuously, mean, read-out: AUC0-t): 4850 ng·h/mL
Vd/F [1, 6]: 579 L
half-life [1, 6]: 39.6 h
Tmax ([1]; 150 mg, Day 1, daily dosing continuously): 6 h
Cmax ([1]; 150 mg, Day 15, daily dosing continuously, mean): 755 ng/mL
AUC(0-t) ([1]; 150 mg, Day 15, daily dosing continuously, mean, read-out: AUC0-24): 16600 ng·h/mL
AUC(0-t) ([1]; 150 mg, Day 15, daily dosing continuously, mean, read-out: AUC0-t): 16600 ng·h/mL
Tmax ([1]; 150 mg, Day 15, daily dosing continuously): 6 h
AUC(0-inf) [1, 7]: 164000 ng·h/mL
Vd/F [1, 7]: 174 L
half-life [1, 7]: 132 h
AUC(0-inf) [1, 8]: 16400 ng·h/mL
Cmax [1, 8]: 472 ng/mL
AUC(0-t) ([1]; 250 mg, Day 1, daily dosing continuously, mean, read-out: AUC0-24): 6110 ng·h/mL
AUC(0-t) ([1]; 250 mg, Day 1, daily dosing continuously, mean, read-out: AUC0-t): 6110 ng·h/mL
Vd/F [1, 8]: 766 L
half-life [1, 8]: 34.4 h
Tmax ([1]; 250 mg, Day 1, daily dosing continuously): 4 h
AUC(0-inf) [1, 9]: 54500 ng·h/mL
Cmax [1, 9]: 1050 ng/mL
AUC(0-t) ([1]; 250 mg, Day 15, daily dosing continuously, mean, read-out: AUC0-24): 18500 ng·h/mL
AUC(0-t) ([1]; 250 mg, Day 15, daily dosing continuously, mean, read-out: AUC0-t): 18500 ng·h/mL
Vd/F [1, 9]: 259 L
half-life [1, 9]: 38.8 h
Tmax ([1]; 250 mg, Day 15, daily dosing continuously): 4 h
AUC(0-inf) [1, 10]: 134000 ng·h/mL
Cmax [1, 10]: 623 ng/mL
AUC(0-t) ([1]; 350 mg, Day 1, daily dosing continuously, mean, read-out: AUC0-24): 10400 ng·h/mL
AUC(0-t) ([1]; 350 mg, Day 1, daily dosing continuously, mean, read-out: AUC0-t): 10400 ng·h/mL
Vd/F [1, 10]: 155 L
half-life [1, 10]: 129 h
Tmax ([1]; 350 mg, Day 1, daily dosing continuously): 6 h
AUC(0-inf) [1, 11]: 164000 ng·h/mL
Cmax [1, 11]: 1490 ng/mL
AUC(0-t) ([1]; 350 mg, Day 15, daily dosing continuously, mean, read-out: AUC0-24): 26700 ng·h/mL
AUC(0-t) ([1]; 350 mg, Day 15, daily dosing continuously, mean, read-out: AUC0-t): 26700 ng·h/mL
Vd/F [1, 11]: 77.6 L
half-life [1, 11]: 72.5 h
Tmax ([1]; 350 mg, Day 15, daily dosing continuously): 4 h
AUC(0-inf) [1, 12]: 41000 ng·h/mL
Cmax [1, 12]: 1140 ng/mL
AUC(0-t) ([1]; 500 mg, Day 1, daily dosing continuously, mean, read-out: AUC0-24): 16400 ng·h/mL
AUC(0-t) ([1]; 500 mg, Day 1, daily dosing continuously, mean, read-out: AUC0-t): 16400 ng·h/mL
Vd/F [1, 12]: 72.5 L
half-life [1, 12]: 24.8 h
Tmax ([1]; 500 mg, Day 1, daily dosing continuously): 6 h
AUC(0-inf) [1, 13]: 108000 ng·h/mL
Cmax [1, 13]: 2250 ng/mL
AUC(0-t) ([1]; 500 mg, Day 15, daily dosing continuously, mean, read-out: AUC0-24): 40500 ng·h/mL
AUC(0-t) ([1]; 500 mg, Day 15, daily dosing continuously, mean, read-out: AUC0-t): 40500 ng·h/mL
Vd/F [1, 13]: 51 L
half-life [1, 13]: 42.4 h
Tmax ([1]; 500 mg, Day 15, daily dosing continuously): 2 h
Structure (SMILES): CN1CC[C@@H](c2c(O)cc(O)c3c(=O)cc(-c4ccc(C(F)(F)F)cc4Cl)oc23)[C@@H]1CO [Voruciclib, (+)-trans-2-(2-Chloro-4-trifluoromethylphenyl)-5,7-dihydroxy-8-(2-hydroxymethyl-1-methylpyrrolidin-3-yl)-chromen-4-one]
best response (Solid Tumors; [3]): 12 SD lasting a median of 15 weeks
disease control rate (Solid Tumors; [3]): 31%
patients with decreased c-MYC expression (Solid Tumors; Phase 1 daily dosing study, 17/25 patients tested): 68%
MYC positive cells (MIA PaCa-2 xenografts): decrease in MYC
synergy with Venetoclax [2]: Synergizes with Venetoclax
